Assay results from article PMC6685790 (Nature structural & molecular biology, 2008).
Where a chain is given by its changes, count along the chain named. Each block holds one compound with its values, some of them ahead of it.

Legend:
Experiment in all cases: Whole-cell recording of substituted GlyR in HEK cells
Format in all cases: cell-based
GlyR α1^I62A = biological target: T1, GlyR α1^I62A (Homo sapiens, UniProt P23415, I90A)
T1 sequence (P23415 29-457 I90A): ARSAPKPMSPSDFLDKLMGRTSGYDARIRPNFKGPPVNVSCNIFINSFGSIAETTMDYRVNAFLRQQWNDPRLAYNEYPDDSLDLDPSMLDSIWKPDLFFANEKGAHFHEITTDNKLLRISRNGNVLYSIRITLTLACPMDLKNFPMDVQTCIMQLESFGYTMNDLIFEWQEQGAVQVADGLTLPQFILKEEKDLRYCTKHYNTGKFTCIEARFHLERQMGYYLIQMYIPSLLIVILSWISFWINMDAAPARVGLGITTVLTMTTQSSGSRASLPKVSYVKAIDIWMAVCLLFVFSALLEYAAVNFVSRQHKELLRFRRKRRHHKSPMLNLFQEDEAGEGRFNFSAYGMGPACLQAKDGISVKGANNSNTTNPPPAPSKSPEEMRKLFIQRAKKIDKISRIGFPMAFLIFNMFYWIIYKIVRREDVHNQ

GlyR α1^L98A = biological target: T2, GlyR α1^L98A (Homo sapiens, UniProt P23415, L126A); details: α1^L98A
T2 sequence (P23415 29-457 L126A): T1 sequence (P23415 29-457 I90A) with A62I, L98A

GlyR α1^I132A = biological target: T3, GlyR α1^I132A (Homo sapiens, UniProt P23415, I160A)
T3 sequence (P23415 29-457 I160A): T1 sequence (P23415 29-457 I90A) with A62I, I132A

GlyR α1^L134A = biological target: T4, GlyR α1^L134A (Homo sapiens, UniProt P23415, L162A); details: α1^L134A
T4 sequence (P23415 29-457 L162A): T1 sequence (P23415 29-457 I90A) with A62I, L134A

GlyR α1^L134A, E157A = biological target: T5, GlyR α1^L134A, E157A (Homo sapiens, UniProt P23415, E185A/L162A)
T5 sequence (P23415 29-457 L162A/E185A): T1 sequence (P23415 29-457 I90A) with A62I, L134A, E157A

GlyR α1^I111A = biological target: T6, GlyR α1^I111A (Homo sapiens, UniProt P23415, I139A)
T6 sequence (P23415 29-457 I139A): T1 sequence (P23415 29-457 I90A) with A62I, I111A

[1] = read-out: Zn^2+ Activation EC50, direct activation without glycine
[2] = read-out: Zn^2+ Inhibition IC50, modulation of EC50 glycine currents
[3] = maximal Zn^2+ response as percentage of maximal glycine response in same cell

Zn^2+ Activation Relative efficacy (% Gly Imax) (GlyR α1^I62A; maximal activation with 1 mM Zn^2+, as percentage of maximal glycine response in same cell): 3 ± 1 % Gly Imax
EC50 (GlyR α1^I62A; [1]): > 1000 µM
IC50 (GlyR α1^I62A; [2]): > 1000 µM
EC50 (GlyR α1^L98A; [1]): 0.26 ± 0.08 µM
IC50 (GlyR α1^L98A; [2]): > 1000 µM
Zn^2+ Activation nH (GlyR α1^L98A; Hill slope): 1.1 ± 0.2
Zn^2+ Activation Relative efficacy (% Gly Imax) (GlyR α1^L98A; [3]): 49 ± 5 % Gly Imax
Zn^2+ Activation nH (GlyR α1^I132A; Hill slope): 1.2 ± 0.1
Zn^2+ Activation Relative efficacy (% Gly Imax) (GlyR α1^I132A; [3]): 72 ± 5 % Gly Imax
EC50 (GlyR α1^I132A; [1]): 140 ± 30 µM
IC50 (GlyR α1^I132A; [2]): > 1000 µM
EC50 (GlyR α1^L134A; [1]): 0.06 ± 0.01 µM
IC50 (GlyR α1^L134A; [2]): > 1000 µM
Zn^2+ Activation nH (GlyR α1^L134A; Hill slope): 1.3 ± 0.1
Zn^2+ Activation Relative efficacy (% Gly Imax) (GlyR α1^L134A; [3]): 38 ± 9 % Gly Imax
Reduction in sensitivity to Zn^2+ activation (GlyR α1^L134A, E157A; α1^L134A, E157A vs α1^L134A): 3 fold
Zn^2+ Activation nH (GlyR α1^I111A; Hill slope): 0.7 ± 0.2
Zn^2+ Activation Relative efficacy (% Gly Imax) (GlyR α1^I111A; [3]): 83 ± 3 % Gly Imax
EC50 (GlyR α1^I111A; [1]): 470 ± 130 µM
IC50 (GlyR α1^I111A; [2]): > 1000 µM
Structure (SMILES): [Zn+2] [Zn^2+]

Glycine Imax (GlyR α1^I62A): 7.6 ± 0.7 nA
Glycine nH (GlyR α1^I62A; Hill slope): 2.5 ± 0.1
Glycine Imax (GlyR α1^L98A): 6.4 ± 0.5 nA
Glycine nH (GlyR α1^L98A; Hill slope): 1.9 ± 0.3
Glycine Imax (GlyR α1^I132A): 6.1 ± 0.7 nA
Glycine nH (GlyR α1^I132A; Hill slope): 2.7 ± 0.4
Glycine Imax (GlyR α1^L134A): 6.0 ± 0.3 nA
Glycine nH (GlyR α1^L134A; Hill slope): 3.0 ± 0.4
Reduction in sensitivity to glycine (GlyR α1^L134A, E157A; α1^L134A with extra mutation E157A vs α1^L134A): 50 fold
Threshold concentration for glycine (GlyR α1^L134A, E157A; α1^L134A, E157A): > 100 µM
Glycine Imax (GlyR α1^I111A): 4.6 ± 0.8 nA
Glycine nH (GlyR α1^I111A; Hill slope): 1.3 ± 0.2
Structure (SMILES): NCC(=O)O [Glycine, glycine]
